Measured values as given in patent US11179391B2, “Compound with kinase inhibitory activity and preparation method and use thereof” (priority 2017, dated 2021).
pIC50: −log10 of the molar value.

What was measured:
Type in all cases: biochemical
[1] = biological target: CDK4/CycD3 (Homo sapiens, UniProt P11802); test: Determination of CDK activity (Caliper mobility shift, FAM-P8 peptide): CDK4; details: CDK4/CycD3; read-out: CDK4 enzymatic inhibitory activity (IC50)
Procedure: (§1) In vitro, CDK (CDK4, CDK6, CDK1, CDK2, CDK7, and CDK9) kinase activity was tested by the following method.
(§2) CDK and raw materials used here: CDK4/CycD3 (Carna, Cat. No 04-105, Lot. No 10CBS-0429 C, GST-CDK4(1-303end)/GST-CycD3(1-292end)); CDK6/cycD3 (Carna, Cat. No 04-107, Lot. No 09CBS-0622K, GST-CDK6(1-326(end))); CDK1/CyclinB (Millipore, Cat. 14-450k, Lot. No 25729U, His-CDK1+GST-cyclinB); CDK2/CycA2 (Carna, Cat. No 04-103, Lot. No 06CBS-3024, GST-CDK2 (1-298(end))); CDK7/CyclinH/MAT1 (Millipore, Cat. No 14-476M, Lot. No WAB0365-A, His-CDK7+GST-MAT1+cyclinH); CDK9/cyclinTl (Millipore, Cat. No 14-685K, Lot. No. 2476163-A, His-CDK9+cyclinTl); Peptide FAM-P8 (GL Biochem, Cat. No. 112396, Lot. No. P100804-XZ112396); ATP (Sigma, Cat. No. A7699-1G, CAS No. 987-65-5); DMSO (Sigma, Cat. No. D2650, Lot. No. 474382); EDTA (Sigma, Cat. No. E5134, CAS No. 60-00-4); 96-well plate (Corning, Cat. No. 3365, Lot. No. 22008026); 384-well plate (Corning, Cat. No. 3573, Lot. No. 12608008); Staurosporine (Sigma, Cat. No. S4400-1MG, Lot. No. 046K4080).
(§3) 1. Prepared 1× Kinase Buffer and Stop Buffer for the Test
2) 1× Kinase Base Buffer (CDK4).
(§4) 1) Diluted the compound to 50 times of the maximum concentration with 100% DMSO. For example, if the desired maximum inhibitory concentration is 10 μM, then a DMSO solution of 500 μM concentration is required.
(§5) 2) Transferred the compound to a 96-well plate and serially diluted the compound from a 100% DMSO solution at a ratio of 30 μm to 60 μm for a total of 10 concentrations gradients. 3) Transferred 100 μm of 100% DMSO to two empty wells as a no compound control and a no enzyme control.
(§6) 4) Prepared intermediate plate and transferred the compound of 10 μm concentration from the original plate to the intermediate plate, and then 90 μm of 1× kinase buffer was added and mixed by shaking for 10 min.
(§7) 4) Preparing intermediate plate and transferred the compound of […] concentration from the original plate to the intermediate plate, and then 90 μm of 1× kinase buffer was added and mixed by shaking for 10 min.
(§8) 1) Transferred 5 μm of each compound from the 96-well intermediate plate to a 384-well plate. For example, A1 of the 96-well plate was transferred to A1 and A2 of the 384-well plate. A2 of the 96-well plate was transferred to A3 and A4 of the 384-well plate, and so on.
(§9) 1) Prepared a 2.5× enzyme solution: added kinase into 1× kinase base buffer.
(§10) 2) Prepared a 2.5× peptide solution: added FAM-labeled peptide and ATP into the 1× kinase base buffer.
(§11) 3) Transferred the 2.5× enzyme solution to the assay plate: Assay plate already contained 5 μm of 10% DMSO and transferred 10 μm of 2.5× enzyme solution to each well.
(§12) 4) Incubated at room temperature for 10 min.
(§13) 5) Transferred the 2.5× peptide solution to the assay plate: added 10 μm of 2.5× peptide solution to each well of the 384-well assay plate.
(§14) 6) Kinase reaction and termination: incubated at 28° C. for a specified period and added 25 μm of stop buffer to stop the reaction.
(§15) 5. Caliper Reading: Collect Data on Caliper.
(§16) 1) Copied conversion data from Caliper program and Converted conversion values to inhibition values: Inhibition rate (%)=(1−OD value of the compound-OD value of the control well)/(OD value of the control empty-OD value of the control well)*100%.
(§17) 2) Fitted the data in XLFit excel add-in version 4.3.1 to give the corresponding IC50 values.

[2] = biological target: CDK6/cycD3 (Homo sapiens, UniProt Q00534); test: Determination of CDK activity (Caliper mobility shift, FAM-P8 peptide): CDK6; details: CDK6/cycD3; read-out: CDK6 enzymatic inhibitory activity (IC50)
Procedure: as §1, §2, §3
(§18) 1) 1× Kinase Base Buffer (CDK1, 2, and 6).
as §4, §5, §6, §7, §8, §9, §10, §11, §12, §13, §14, §15, §16, §17

[3] = biological target: CDK1/CyclinB (Homo sapiens, UniProt P06493); test: Determination of CDK activity (Caliper mobility shift, FAM-P8 peptide): CDK1; details: CDK1/CyclinB; read-out: CDK1 enzymatic inhibitory activity (IC50)
Procedure: as §1, §3, §18, §4, §5
(§19) 1) Transferred 5 μm of each compound from the 96-well intermediate plate to a 384-well plate. […] A2 of the 96-well plate was transferred to A3 and A4 of the 384-well plate, and so on.
as §9, §10, §11, §12, §13, §14, §15, §16, §17

[4] = biological target: CDK2/CycA2 (Homo sapiens, UniProt P24941); test: Determination of CDK activity (Caliper mobility shift, FAM-P8 peptide): CDK2; details: CDK2/CycA2; read-out: CDK2 enzymatic inhibitory activity (IC50)
Procedure: as §1, §3, §18, §4, §5, §19, §9, §10, §11, §12, §13, §14, §15, §16, §17

[5] = biological target: CDK7/CyclinH/MAT1 (Homo sapiens, UniProt P50613); test: Determination of CDK activity (Caliper mobility shift, FAM-P8 peptide): CDK7; details: CDK7/CyclinH/MAT1; read-out: CDK7 enzymatic inhibitory activity (IC50)
Procedure: as §1, §2, §3
(§20) 3) 1× Kinase Base Buffer (CDK7 and 9).
as §4, §5, §6, §7, §8, §9, §10, §11, §12, §13, §14, §15, §16, §17

[6] = biological target: CDK9/cyclinTl (Homo sapiens, UniProt P50750); test: Determination of CDK activity (Caliper mobility shift, FAM-P8 peptide): CDK9; details: CDK9/cyclinTl; read-out: CDK9 enzymatic inhibitory activity (IC50)
Procedure: as §1, §3, §20, §4, §5, §19, §9, §10, §11, §12, §13, §14, §15, §16, §17

Chain of CDK4/CycD3 (P11802 whole entry): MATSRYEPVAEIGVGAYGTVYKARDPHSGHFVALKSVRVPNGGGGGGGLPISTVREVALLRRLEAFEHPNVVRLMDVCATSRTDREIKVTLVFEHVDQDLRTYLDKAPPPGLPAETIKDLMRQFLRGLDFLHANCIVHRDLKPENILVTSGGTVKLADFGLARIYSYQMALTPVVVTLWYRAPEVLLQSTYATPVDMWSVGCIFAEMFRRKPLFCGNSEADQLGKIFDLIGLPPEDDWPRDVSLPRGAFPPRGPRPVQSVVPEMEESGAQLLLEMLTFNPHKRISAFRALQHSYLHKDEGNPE
Chain of CDK4/CycD3 (P30281 whole entry partner): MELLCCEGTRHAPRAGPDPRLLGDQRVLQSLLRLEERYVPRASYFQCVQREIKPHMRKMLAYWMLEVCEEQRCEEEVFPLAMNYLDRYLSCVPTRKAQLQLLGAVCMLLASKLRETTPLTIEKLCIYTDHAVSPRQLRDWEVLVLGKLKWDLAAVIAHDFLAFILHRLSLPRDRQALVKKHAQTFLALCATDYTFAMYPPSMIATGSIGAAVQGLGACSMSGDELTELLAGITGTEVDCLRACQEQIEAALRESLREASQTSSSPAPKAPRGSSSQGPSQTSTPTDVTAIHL
Chain of CDK1/CyclinB (P06493 whole entry): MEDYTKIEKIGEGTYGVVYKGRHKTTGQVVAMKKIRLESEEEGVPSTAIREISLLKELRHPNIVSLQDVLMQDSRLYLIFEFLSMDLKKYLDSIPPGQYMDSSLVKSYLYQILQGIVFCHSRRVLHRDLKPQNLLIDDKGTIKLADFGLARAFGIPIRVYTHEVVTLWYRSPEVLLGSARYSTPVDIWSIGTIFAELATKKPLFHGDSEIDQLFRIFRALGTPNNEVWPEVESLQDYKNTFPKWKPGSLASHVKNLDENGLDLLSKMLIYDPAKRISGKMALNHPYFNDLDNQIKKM
Chain of CDK1/CyclinB (P14635 whole entry partner): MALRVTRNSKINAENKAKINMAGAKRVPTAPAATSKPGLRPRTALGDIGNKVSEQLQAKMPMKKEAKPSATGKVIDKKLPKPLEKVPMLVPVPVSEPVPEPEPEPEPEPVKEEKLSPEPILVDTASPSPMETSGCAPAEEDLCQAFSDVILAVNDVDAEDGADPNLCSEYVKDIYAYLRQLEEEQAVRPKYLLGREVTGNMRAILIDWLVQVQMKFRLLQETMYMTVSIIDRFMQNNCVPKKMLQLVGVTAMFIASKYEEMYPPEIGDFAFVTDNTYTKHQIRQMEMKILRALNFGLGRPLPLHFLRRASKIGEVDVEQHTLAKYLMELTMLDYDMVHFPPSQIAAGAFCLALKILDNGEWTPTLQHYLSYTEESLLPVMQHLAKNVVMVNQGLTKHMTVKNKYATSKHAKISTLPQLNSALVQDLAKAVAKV
Chain of CDK7/CyclinH/MAT1 (P50613 whole entry): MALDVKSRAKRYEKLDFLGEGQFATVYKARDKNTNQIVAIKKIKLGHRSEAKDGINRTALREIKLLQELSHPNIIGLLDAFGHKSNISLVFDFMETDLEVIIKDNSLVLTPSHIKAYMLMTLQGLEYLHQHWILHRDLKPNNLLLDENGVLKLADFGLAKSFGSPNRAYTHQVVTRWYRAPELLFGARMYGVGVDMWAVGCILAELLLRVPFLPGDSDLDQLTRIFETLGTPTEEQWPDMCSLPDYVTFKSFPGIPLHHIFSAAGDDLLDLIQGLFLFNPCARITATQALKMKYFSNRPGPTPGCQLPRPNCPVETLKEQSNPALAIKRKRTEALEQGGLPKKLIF
Chain of CDK7/CyclinH/MAT1 (P51946 whole entry partner): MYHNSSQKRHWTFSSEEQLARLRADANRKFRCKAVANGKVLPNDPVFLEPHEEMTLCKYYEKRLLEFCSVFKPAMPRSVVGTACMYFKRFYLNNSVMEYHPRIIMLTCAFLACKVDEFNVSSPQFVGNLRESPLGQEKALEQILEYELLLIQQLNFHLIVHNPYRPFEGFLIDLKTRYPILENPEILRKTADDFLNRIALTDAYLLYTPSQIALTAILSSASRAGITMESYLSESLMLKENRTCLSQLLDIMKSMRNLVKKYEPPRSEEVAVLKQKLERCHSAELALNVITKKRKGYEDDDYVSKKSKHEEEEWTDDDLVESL
Chain of CDK7/CyclinH/MAT1 (P51948 whole entry partner): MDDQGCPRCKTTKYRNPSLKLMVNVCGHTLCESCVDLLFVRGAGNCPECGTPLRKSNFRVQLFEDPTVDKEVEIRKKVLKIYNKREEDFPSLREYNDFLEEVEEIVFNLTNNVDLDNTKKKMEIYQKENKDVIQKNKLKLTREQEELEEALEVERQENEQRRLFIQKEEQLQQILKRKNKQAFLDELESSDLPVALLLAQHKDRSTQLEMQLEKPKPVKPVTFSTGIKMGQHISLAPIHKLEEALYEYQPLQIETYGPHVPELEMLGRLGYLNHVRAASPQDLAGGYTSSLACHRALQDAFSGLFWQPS
Chain of CDK6/cycD3 (Q00534 whole entry): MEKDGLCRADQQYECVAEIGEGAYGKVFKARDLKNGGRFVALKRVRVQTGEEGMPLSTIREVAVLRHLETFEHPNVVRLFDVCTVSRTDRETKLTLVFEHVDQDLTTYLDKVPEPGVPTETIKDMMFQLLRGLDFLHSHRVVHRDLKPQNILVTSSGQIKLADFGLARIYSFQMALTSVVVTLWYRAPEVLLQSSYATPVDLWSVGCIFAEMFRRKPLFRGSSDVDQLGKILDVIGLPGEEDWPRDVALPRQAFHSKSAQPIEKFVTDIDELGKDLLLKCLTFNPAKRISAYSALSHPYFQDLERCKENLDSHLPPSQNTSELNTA
Chain of CDK6/cycD3 (P30281 whole entry partner): as the sequence (P30281 whole entry partner) above
Chain of CDK9/cyclinTl (P50750 whole entry): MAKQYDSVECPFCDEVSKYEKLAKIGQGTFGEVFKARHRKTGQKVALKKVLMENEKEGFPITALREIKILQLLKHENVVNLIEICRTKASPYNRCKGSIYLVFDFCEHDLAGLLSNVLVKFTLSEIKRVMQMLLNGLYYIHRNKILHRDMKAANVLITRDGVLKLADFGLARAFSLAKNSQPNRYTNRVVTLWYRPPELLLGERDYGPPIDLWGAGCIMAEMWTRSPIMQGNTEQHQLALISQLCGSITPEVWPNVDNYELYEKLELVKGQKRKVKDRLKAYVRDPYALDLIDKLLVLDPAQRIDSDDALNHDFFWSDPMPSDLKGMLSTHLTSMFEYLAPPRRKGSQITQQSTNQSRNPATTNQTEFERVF
Chain of CDK9/cyclinTl (O60563 whole entry partner): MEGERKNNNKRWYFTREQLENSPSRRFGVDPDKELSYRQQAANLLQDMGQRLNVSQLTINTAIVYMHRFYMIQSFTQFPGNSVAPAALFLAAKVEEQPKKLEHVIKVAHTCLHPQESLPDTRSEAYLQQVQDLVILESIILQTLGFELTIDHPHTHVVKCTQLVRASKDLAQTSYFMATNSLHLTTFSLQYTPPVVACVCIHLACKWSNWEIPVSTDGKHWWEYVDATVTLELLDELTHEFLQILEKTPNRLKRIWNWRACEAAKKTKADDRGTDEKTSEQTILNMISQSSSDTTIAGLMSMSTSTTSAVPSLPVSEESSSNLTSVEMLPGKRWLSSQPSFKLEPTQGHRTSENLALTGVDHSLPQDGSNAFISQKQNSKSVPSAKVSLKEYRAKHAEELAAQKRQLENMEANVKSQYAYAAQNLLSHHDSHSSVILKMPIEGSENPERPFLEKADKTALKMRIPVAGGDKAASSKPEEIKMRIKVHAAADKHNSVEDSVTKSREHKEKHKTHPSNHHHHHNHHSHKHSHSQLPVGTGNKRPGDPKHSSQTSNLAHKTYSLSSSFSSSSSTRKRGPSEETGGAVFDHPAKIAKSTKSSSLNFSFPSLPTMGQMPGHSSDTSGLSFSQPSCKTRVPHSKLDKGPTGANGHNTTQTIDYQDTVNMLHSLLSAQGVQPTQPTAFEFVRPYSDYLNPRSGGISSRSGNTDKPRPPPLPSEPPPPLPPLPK

| pIC50 [1] | pIC50 [2] | pIC50 [3] | pIC50 [4] | pIC50 [5] | pIC50 [6] | Compound |
| --- | --- | --- | --- | --- | --- | --- |
| > 7.00 | 6.00 to 6.30 | 4.00 to 5.00 | 5.00 to 6.00 | 5.00 to 6.00 | 5.00 to 6.00 | CC[C@@H](c1ccc(Nc2ncc(F)c(-c3cc(F)c4nc(C)n(C(C)C)c4c3)n2)nc1)N1CCNCC1 [Example 4] |
| > 7.00 | > 7.00 | 6.30 to 7.00 | > 7.00 | 5.00 to 6.00 | 6.30 to 7.00 | COCCN1CCC(=Cc2ccc(Nc3ncc(F)c(-c4cc(F)c5nc(C)n(C(C)C)c5c4)n3)nc2)CC1 [Example 68] |
| 6.30 to 7.00 | 6.30 to 7.00 | 6.00 to 6.30 | 6.30 to 7.00 | 5.00 to 6.00 | 6.00 to 6.30 | CC[C@@H](c1ccc(Nc2ncc(F)c(-c3cc(F)c4nc(C)n(C(C)C)c4c3)n2)nc1)C1CCN(CC)CC1 [Example 25] |
| > 7.00 | 6.30 to 7.00 | 6.00 to 6.30 | 6.30 to 7.00 | 5.00 to 6.00 | 6.30 to 7.00 | Cc1nc2c(F)cc(-c3nc(Nc4ccc([C@@H](C)C5CCN(C6CC6)CC5)cn4)ncc3F)cc2n1C(C)C [Example 76] |
| > 7.00 | > 7.00 | 6.30 to 7.00 | > 7.00 | 5.00 to 6.00 | 6.30 to 7.00 | Cc1nc2c(F)cc(-c3nc(Nc4ccc(C=C5CCN(CCO)CC5)cn4)ncc3F)cc2n1C(C)C [Example 67] |
| > 7.00 | 6.30 to 7.00 | 5.00 to 6.00 | 6.30 to 7.00 | 4.00 to 5.00 | 6.30 to 7.00 | Cc1nc2c(F)cc(-c3nc(Nc4ccc(C=C5CCN(C(C)C)CC5)cn4)ncc3F)cc2n1C(C)C [Example 64] |
| > 7.00 | > 7.00 | 6.30 to 7.00 | > 7.00 | 5.00 to 6.00 | 6.30 to 7.00 | CCN1CCC(C(C)c2ccc(Nc3ncc(F)c(-c4cc(F)c5nc(C)n(C(C)C)c5c4)n3)nc2)CC1 (racemic) [Example 16, N-(5-(1-(1-ethylpiperidin-4-yl)ethyl)pyridin-2-yl)-5-fluoro-4-(4-fluoro-1-isopropyl-2-methyl-1H-benzo[d]imidazol-6-yl)pyrimidin-2-amine] |
| > 7.00 | > 7.00 | 6.30 to 7.00 | > 7.00 | 5.00 to 6.00 | 6.30 to 7.00 | Cc1nc2c(F)cc(-c3nc(Nc4ccc(C=C5CCN(C6CC6)CC5)cn4)ncc3F)cc2n1C(C)C [Example 66] |
| > 7.00 | > 7.00 | 6.30 to 7.00 | > 7.00 | 5.00 to 6.00 | 6.30 to 7.00 | Cc1nc2c(F)cc(-c3nc(Nc4ccc([C@H](C)C5CCN(CC(F)F)CC5)cn4)ncc3F)cc2n1C(C)C [Example 83] |
| 6.30 to 7.00 | 6.30 to 7.00 | 6.30 to 7.00 | 6.30 to 7.00 | 6.30 to 7.00 | 6.00 to 6.30 | Cc1nc2c(F)cc(-c3nc(Nc4ccc([C@@H](O)C5CCNCC5)cn4)ncc3F)cc2n1C(C)C [Example 44] |
| > 7.00 | > 7.00 | 6.30 to 7.00 | > 7.00 | 5.00 to 6.00 | 6.30 to 7.00 | Cc1nc2c(F)cc(-c3nc(Nc4ccc([C@H](C)C5CCN(C6CC6)CC5)cn4)ncc3F)cc2n1C(C)C [Example 75] |
| > 7.00 | > 7.00 | 6.30 to 7.00 | > 7.00 | 5.00 to 6.00 | 6.30 to 7.00 | Cc1nc2c(F)cc(-c3nc(Nc4ccc([C@H](C)C5CCN(CC(F)(F)F)CC5)cn4)ncc3F)cc2n1C(C)C [Example 85] |
| 6.30 to 7.00 | 6.30 to 7.00 | 6.00 to 6.30 | 6.00 to 6.30 | 5.00 to 6.00 | 6.00 to 6.30 | CC[C@H](c1ccc(Nc2ncc(F)c(-c3cc(F)c4nc(C)n(C(C)C)c4c3)n2)nc1)C1CCN(CC)CC1 [Example 26] |
| 6.30 to 7.00 | > 7.00 | 6.30 to 7.00 | 6.30 to 7.00 | 5.00 to 6.00 | 6.30 to 7.00 | Cc1nc2c(F)cc(-c3nc(Nc4ccc(C(C)C5CCNCC5)cn4)ncc3F)cc2n1C(C)C (single isomer, unassigned) [Example 19, (R or S)-5-fluoro-4-(4-fluoro-1-isopropyl-2-methyl-1H-benzo[d]imidazol-6-yl)-N-(5-(1-(piperidin-4-yl)ethyl)pyridin-2-yl) pyrimidin-2-amine] |
| > 7.00 | > 7.00 | 6.30 to 7.00 | > 7.00 | 5.00 to 6.00 | 6.30 to 7.00 | Cc1nc2c(F)cc(-c3nc(Nc4ccc([C@H](C)C5CCN(CCO)CC5)cn4)ncc3F)cc2n1C(C)C [Example 77] |
| 6.30 to 7.00 | 6.30 to 7.00 | 6.00 to 6.30 | 6.30 to 7.00 | 5.00 to 6.00 | 6.30 to 7.00 | C=C(c1ccc(Nc2ncc(F)c(-c3cc(F)c4nc(C)n(C(C)C)c4c3)n2)nc1)C1CCNCC1 [Example 34] |
| > 7.00 | > 7.00 | 6.30 to 7.00 | 6.30 to 7.00 | 6.30 to 7.00 | 6.30 to 7.00 | Cc1nc2c(F)cc(-c3nc(Nc4ccc([C@H](O)C5CCN(C)CC5)cn4)ncc3F)cc2n1C(C)C [Example 49] |
